Nine compounds from ChEMBL document CHEMBL2331351, “5-Oxo-ETE receptor antagonists” (J Med Chem, 2013) can be followed below.

Common to all, as to assay type: functional
For test [1], the target named is T1, Oxoeicosanoid receptor 1 (Homo sapiens, UniProt Q8TDS5). Kind of test: Antagonist activity at OXE receptor in human neutrophils assessed as 5-oxo-ETE-induced Ca2+ mobilization incubated for 2 mins prior to 5-oxo-ETE addition measured after 1 min by spectrofluorimetric analysis. Background: Calcium flux is commonly read through the fluorescence of an indicator in the cells.
T1 sequence (Q8TDS5 whole entry): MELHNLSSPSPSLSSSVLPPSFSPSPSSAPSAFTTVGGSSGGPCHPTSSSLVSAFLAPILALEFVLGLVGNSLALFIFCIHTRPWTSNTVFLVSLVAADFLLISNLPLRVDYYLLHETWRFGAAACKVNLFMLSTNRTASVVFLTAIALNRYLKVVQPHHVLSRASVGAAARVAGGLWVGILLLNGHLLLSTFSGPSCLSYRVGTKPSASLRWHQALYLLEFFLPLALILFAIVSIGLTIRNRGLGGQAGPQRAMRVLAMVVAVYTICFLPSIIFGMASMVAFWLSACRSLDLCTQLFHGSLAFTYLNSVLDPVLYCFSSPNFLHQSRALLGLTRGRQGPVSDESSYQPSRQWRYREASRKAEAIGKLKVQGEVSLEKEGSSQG

The target of test [2] is T1, Oxoeicosanoid receptor 1. Kind of test: Agonist activity at OXE receptor in human neutrophils assessed as 5-oxo-ETE-induced Ca2+ mobilization incubated for 2 mins prior to 5-oxo-ETE addition measured after 1 min by spectrofluorimetric analysis.
In test [3] the target is T1, Oxoeicosanoid receptor 1. Briefly: Antagonist activity at OXE receptor in human neutrophils assessed as 5-oxo-ETE-induced Ca2+ mobilization incubated for 2 mins prior to 5-oxo-ETE addition measured at 30 uM after 1 min by spectrofluorimetric analysis.
Test [4] addresses T1, Oxoeicosanoid receptor 1. Briefly: Antagonist activity at OXE receptor in human neutrophils assessed as induction of Ca2+ mobilization at 30 uM after 2 mins by spectrofluorimetric analysis.
For test [5], the target named is T1, Oxoeicosanoid receptor 1. Briefly: Antagonist activity at OXE receptor in human neutrophils assessed as 5-oxo-ETE-induced Ca2+ mobilization incubated for 2 mins prior to 5-oxo-ETE addition measured at 1 uM after 1 min by spectrofluorimetric analysis.
For test [6], the target named is T1, Oxoeicosanoid receptor 1. Kind of test: Antagonist activity at OXE receptor in human neutrophils assessed as LTB4-induced Ca2+ mobilization incubated for 2 mins prior to 5-oxo-ETE addition measured after 1 min by spectrofluorimetric analysis.

Active and inactive are the calls of the source. The calls are words filed in the database; no cut-off is given here. A value given as a limit tells only on which side of the number the result lay.

On to `CCCCCCc1cccc2ccn(C(=O)CCCC(=O)O)c12`, for which the IC50 (usually the concentration at which inhibition is half-maximal) on Oxoeicosanoid receptor 1 [1] worked out at 11.8 µM.

Consider `CCCCCCc1ccc2ccn(C(=O)CCCC(=O)O)c2c1`, for which the IC50 at Oxoeicosanoid receptor 1 [1] turned out to be 18 µM.

Turning to `CCCCCCc1cn(C(=O)CCCC(=O)O)c2ccccc12`, on Oxoeicosanoid receptor 1 [1], the IC50 worked out at 20.7 µM.

In the case of `CCCCCCc1ccc2c(ccn2C(=O)CCCC(=O)O)c1`, at Oxoeicosanoid receptor 1 [1], the IC50 came out at 17.7 µM.

With `O=C(O)CCCC(=O)/C=C/c1cccc2ccccc12`, the result on Oxoeicosanoid receptor 1 [2] was inactive.

In the case of `O=C(O)CCCC(=O)n1ccc2ccccc21`, the outcome on Oxoeicosanoid receptor 1 [3], on Oxoeicosanoid receptor 1 [4] and at Oxoeicosanoid receptor 1 [2] was inactive. The IC50 at Oxoeicosanoid receptor 1 [1] is greater than 30 µM.

Take `CCCCCCc1cc2ccccc2n1C(=O)CCCC(=O)O`: the result at Oxoeicosanoid receptor 1 [5] was Active. In addition, at Oxoeicosanoid receptor 1 [6], the result was inactive. For the same compound, on Oxoeicosanoid receptor 1 [1], the IC50 is 1.55 µM.

Turning to `O=C(O)CCCC(=O)/C=C/c1ccccc1`, the result on Oxoeicosanoid receptor 1 [2] was inactive.

As to `O=C(O)CCCc1cc2ccccc2o1`, on Oxoeicosanoid receptor 1 [2], the result was inactive.
